± gives the expanded uncertainty stated by the source.
Key:
[1] = xn = mol fraction of the nth substance listed; details: 100 kPa, Liquid, x1 = 1; for viscosity: Falling or rolling sphere viscometry; for mass density: Vibrating tube method
[2] = 100 kPa, Liquid; for viscosity: Falling or rolling sphere viscometry; for mass density: Vibrating tube method

Structure (SMILES)	viscosity ([1]; 293.15 K) [mPa·s]	mass density ([1]; 293.15 K) [kg/m3]	viscosity ([1]; 298.15 K) [mPa·s]	mass density ([1]; 298.15 K) [kg/m3]	viscosity ([1]; 303.15 K) [mPa·s]	mass density ([1]; 303.15 K) [kg/m3]	viscosity ([1]; 308.15 K) [mPa·s]	mass density ([1]; 308.15 K) [kg/m3]	viscosity ([1]; 313.15 K) [mPa·s]	mass density ([1]; 313.15 K) [kg/m3]	viscosity ([2]; 293.15 K) [mPa·s]	mass density ([2]; 293.15 K) [kg/m3]	viscosity ([2]; 298.15 K) [mPa·s]	mass density ([2]; 298.15 K) [kg/m3]	viscosity ([2]; 303.15 K) [mPa·s]	mass density ([2]; 303.15 K) [kg/m3]	viscosity ([2]; 308.15 K) [mPa·s]	mass density ([2]; 308.15 K) [kg/m3]	viscosity ([2]; 313.15 K) [mPa·s]	mass density ([2]; 313.15 K) [kg/m3]
CC(C)CO [2-methyl-1-propanol] + NC1CCCCC1	4.023 ± 0.069	801.96 ± 2	3.404 ± 0.067	798.12 ± 2	2.882 ± 0.065	794.22 ± 2	2.475 ± 0.064	790.27 ± 2	2.097 ± 0.063	786.27 ± 2	–	–	–	–	–	–	–	–	–	–
CC(C)CO [2-methyl-1-propanol]	–	–	–	–	–	–	–	–	–	–	4.023 ± 0.069	801.96 ± 2	3.404 ± 0.067	798.12 ± 2	2.882 ± 0.065	794.22 ± 2	2.475 ± 0.064	790.27 ± 2	2.097 ± 0.063	786.27 ± 2
NC1CCCCC1 [cyclohexylamine]	–	–	–	–	–	–	–	–	–	–	2.134 ± 0.063	866.85 ± 2	1.944 ± 0.062	862.31 ± 2	1.786 ± 0.062	857.79 ± 2	1.572 ± 0.062	853.24 ± 2	1.417 ± 0.061	848.71 ± 2

Source: the NIST ThermoML archive (doi:10.1021/acs.jced.6b00158)
